From ChEMBL document CHEMBL1201862, “PubChem BioAssay data set” (2004)
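These data come from cells grown in 96-well plates and exposed to compound for 48 hours at five concentrations. Here, GI50 denotes the concentration required for 50% inhibition of growth.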 The source made the active and inactive calls. No stated cut-off is given here; in the data, active = GI50 up to about 1.1 µM and inactive = higher.

Assays:
Test in all cases: NCI tumour cell line growth inhibition, 48 h
[1] = system: 786-0
[2] = system: CAKI-1
[3] = system: HOP-62
[4] = system: HOP-92
[5] = system: Hs-578T
[6] = system: KM-20L2
[7] = system: KM12
[8] = system: M19-MEL
[9] = system: Malme-3M
[10] = system: NCI-H226
[11] = system: NCI-H23
[12] = system: NCI/ADR-RES
[13] = system: OVCAR-4
[14] = system: OVCAR-5
[15] = system: OVCAR-8
[16] = system: RXF 393
[17] = system: SK-MEL-5
[18] = system: SK-OV-3
[19] = system: SN12C
[20] = system: U-251

SMILES | GI50 [1] | GI50 [2] | GI50 [3] | GI50 [4] | GI50 [5] | GI50 [6] | GI50 [7] | GI50 [8] | GI50 [9] | GI50 [10] | GI50 [11] | GI50 [12] | GI50 [13] | GI50 [14] | GI50 [15] | GI50 [16] | GI50 [17] | GI50 [18] | GI50 [19] | GI50 [20]
CCCC/C=C1/CCC(CN(C)C)C1=O (stereo not given) | 1.55 µM (inactive) | 0.745 µM (active) | 20 µM (inactive) | 2.07 µM (inactive) | 3.18 µM (inactive) | 2.54 µM (inactive) | 0.673 µM (active) | 1.41 µM (inactive) | 1.98 µM (inactive) | 11.1 µM (inactive) | 3.41 µM (inactive) | 2.64 µM (inactive) | 1.92 µM (inactive) | 6.01 µM (inactive) | 1.83 µM (inactive) | 1.77 µM (inactive) | 9.02 µM (inactive) | 12.9 µM (inactive) | 1.87 µM (inactive) | 1.97 µM (inactive)
COc1cc(CCCC(O)COc2cccc3c2C2(O)CCCCCC32)cc(OC)c1 (stereo not given) | 15.1 µM (inactive) | 20.8 µM (inactive) | 15 µM (inactive) | 4.75 µM (inactive) |  | 14.1 µM (inactive) | 17.2 µM (inactive) | 17 µM (inactive) | 16 µM (inactive) | 16.2 µM (inactive) | 16.9 µM (inactive) |  | 18.2 µM (inactive) | 15.4 µM (inactive) | 19.1 µM (inactive) | 24.8 µM (inactive) | 7.85 µM (inactive) | 23.1 µM (inactive) | 17.2 µM (inactive) | 18.9 µM (inactive)
CC1=CC2CC(C)=C(CC[C@]3(C)CC[C@H]([C@@H](C)C(=O)O)OO3)C(C)(C)C2CC1 (stereo not given in full) | 1.45 µM (inactive) | 1.17 µM (inactive) | 1.75 µM (inactive) | 0.136 µM (active) |  | 1.29 µM (inactive) | 0.128 µM (active) | 1.63 µM (inactive) | 0.771 µM (active) | 1.85 µM (inactive) | 0.9 µM (active) |  | 0.442 µM (active) | 2.34 µM (inactive) | 0.603 µM (active) | 0.372 µM (active) | 1.26 µM (inactive) | 2.2 µM (inactive) | 0.391 µM (active) | 0.356 µM (active)
O=S1(=O)CCC2=CC(C(F)(F)F)=CC(C(F)(F)F)=CN21 | 0.415 µM (active) | 0.56 µM (active) | 2.34 µM (inactive) | 1.15 µM (inactive) | 3.1 µM (inactive) | 2.11 µM (inactive) | 1.71 µM (inactive) | 1.41 µM (inactive) | 0.733 µM (active) | 2.08 µM (inactive) | 1.19 µM (inactive) | 1.09 µM (active) | 1.71 µM (inactive) | 2.11 µM (inactive) | 0.308 µM (active) | 1.47 µM (inactive) | 1.42 µM (inactive) | 3.86 µM (inactive) | 1.55 µM (inactive) | 1.83 µM (inactive)
COc1cccc2nc3c(C(=O)NCCN(C)C)cccc3nc12 | 10.6 µM (inactive) | 17.1 µM (inactive) | 11.4 µM (inactive) | 6.17 µM (inactive) |  | 8.38 µM (inactive) | 7.19 µM (inactive) | 8.07 µM (inactive) | 7.96 µM (inactive) | 5.27 µM (inactive) | 11.8 µM (inactive) |  | 8.77 µM (inactive) | 15.9 µM (inactive) | 9.12 µM (inactive) | 11.6 µM (inactive) | 11.8 µM (inactive) | 25.1 µM (inactive) | 9.2 µM (inactive) | 12.6 µM (inactive)
[N-]=[N+]=C1C(=O)C2CC3CC1CC2C3 (stereo not given) | > 100 µM (inactive) | > 100 µM (inactive) | > 100 µM (inactive) | > 100 µM (inactive) |  | > 100 µM (inactive) | > 100 µM (inactive) | > 100 µM (inactive) | > 100 µM (inactive) | > 100 µM (inactive) | > 100 µM (inactive) |  | > 100 µM (inactive) | > 100 µM (inactive) | > 100 µM (inactive) | > 100 µM (inactive) | > 100 µM (inactive) | > 100 µM (inactive) | > 100 µM (inactive) | > 100 µM (inactive)
CC1=C(C(=O)Nc2ccccc2C)C(c2ccccc2)C(C(=O)Nc2ccccc2C)=C(C)N1 | 68.9 µM (inactive) | 24.9 µM (inactive) | 40.6 µM (inactive) | 6.61 µM (inactive) |  | 42.2 µM (inactive) | 26.6 µM (inactive) | 37.2 µM (inactive) | 35.1 µM (inactive) | > 100 µM (inactive) | 23.7 µM (inactive) |  | 28.5 µM (inactive) | > 100 µM (inactive) | 52 µM (inactive) | 23.9 µM (inactive) | 29.2 µM (inactive) | > 100 µM (inactive) | 56.6 µM (inactive) | 37.2 µM (inactive)
